Values of other authors in patent US20060009430A1, “Composition for the prevention and treatment of the detrimental effects of dihydrotestosterone” (priority 2004, published 2006).

Columns and labels:
[1] = test system: localized prostate cancer; conditions: 15 mg twice per day orally, 3 weeks
[2] = test system: prostate cancer; conditions: 200 μg daily for 4.5 years
[3] = test system: cancer; conditions: in vivo
[4] = test system: advanced prostate cancer; conditions: men with most dietary selenium versus lowest intake
[5] = test system: prostate; conditions: rats, in combination with finasteride

For `CC(C)=CCC/C(C)=C/C=C/C(C)=C/C=C/C(C)=C/C=C/C=C(C)/C=C/C=C(C)/C=C/C=C(\C)CCC=C(C)C` [lycopene], which metastasis ([1]; biopsy) is on record?
Its metastasis is “reduced metastasis”.

And the regression and malignancy ([1]; biopsy)?
Its regression and malignancy is “signs of regression and reduced malignancy”.

And the tumor size ([1]; biopsy)?
The tumor size was “smaller tumors”.

And the PSA ([1]; versus no intervention)?
The PSA was “significant reduction”.

With `[Se]` [selenium] as the compound, how does the skin cancer [2] read?
Its skin cancer is “no changes”.

What about the “total, colorectal and lung cancer” value [2] of the same compound?
The value was “significant benefits”.

And the “reduction in the incidence of prostate cancer (secondary endpoint)” value ([2]; 6.5 years follow-up, 974 men)?
Its value is 63%.

And the “number that developed prostate cancer” value ([2]; placebo group 35)?
Its value is 13.

What about the “reduction of cancer mortality and morbidity” value [3] of the same compound?
The value was “approximately 50%”.

And the “risk of lung, prostate and colon cancer” value [3]?
The value was “reduced significantly”.

And the “fewer cases of advanced prostate cancer” value [4]?
The value was 65%.

For `O=c1c(O)c(-c2ccc(O)c(O)c2)oc2cc(O)cc(O)c12` [quercetin], which prostate weight [5] is on record?
Its prostate weight is “reduce prostate weight”.
